A short description of data set [1]: Cytotoxicity against human PM1 cells expressing CCR5 by MTT assay in presence of 5 uM of chloroquine. In kind it is cell-based.
Data set [2] has as its system Human immunodeficiency virus 1. The data set is described as follows: Antiviral activity against T-cell line-tropic HIV1 NL4-3 infected in human MT4 cells assessed as inhibition of virus-induced cytopathogenicity after 5 days by MTT assay in presence of 5 uM of chloroquine. The settings on record: Human immunodeficiency virus 1, NL4-3, MT4, 120 h. In kind it is functional, organism-based.

A short description of data set [3]: Cytotoxicity against human MT4 cells by MTT assay in presence of 2.5 uM of chloroquine. In kind it is cell-based.
Data set [4] is described as follows: Cytotoxicity against human MT4 cells by MTT assay in presence of 5 uM of chloroquine. The format is cell-based.
Data set [5] can be described thus: Cytotoxicity against human MT4 cells by MTT assay in presence of 10 uM of chloroquine. The format is cell-based.
Data set [6] relates to Human immunodeficiency virus 1. Nature of the data set: Antiviral activity against T-cell line-tropic HIV1 NL4-3 infected in human MT4 cells assessed as inhibition of virus-induced cytopathogenicity after 5 days by MTT assay. The format is functional, organism-based. The settings on record: Human immunodeficiency virus 1, NL4-3, MT4, 120 h.
Data set [7] deals with Human immunodeficiency virus 1. Nature of the data set: Antiviral activity against T-cell line-tropic HIV1 NL4-3 infected in human MT4 cells assessed as inhibition of virus-induced cytopathogenicity after 5 days by MTT assay in presence of 2.5 uM of chloroquine. The format is functional, organism-based. The settings on record: Human immunodeficiency virus 1, NL4-3, MT4, 120 h.

The nature of data set [8]: Cytotoxicity against human MT4 cells by MTT assay. The format is cell-based.
Data set [9] deals with Human immunodeficiency virus 1. Nature of the data set: Antiviral activity against macrophage-tropic HIV1 NL(AD8) infected in human PM1 expressing CCR5 cells assessed as inhibition of virus-induced cytopathogenicity after 5 days by MTT assay in presence of 5 uM of chloroquine. The format is functional, organism-based. The settings on record: Human immunodeficiency virus 1, NL(AD8), PM1/CCR5, 120 h.

The subject of data set [10] is Human immunodeficiency virus 1. Nature of the data set: Antiviral activity against T-cell line-tropic HIV1 NL4-3 infected in human MT4 cells assessed as inhibition of virus-induced cytopathogenicity after 5 days by MTT assay in presence of 10 uM of chloroquine. The settings on record: Human immunodeficiency virus 1, NL4-3, MT4, 120 h. The format is functional, organism-based.

pEC50: −log10 of the molar value. Starred links: 1 amine or outer side, 2 acyl side, 3 side chain; linkers in the order of their positions; H or OH if unused. Positions of bridges follow the written chain, without caps; N, C: chain ends. Non-standard residues stand in square brackets, D forms with d. Residues, ends and D or L forms follow the SMILES beside them. Chains are numbered I, II in the order given. *: point of attachment. Orn = NCCC[C@H](N)C(=O)O; X1 = O=C(C[*:1])[*:2]; Cam = NC(=O)C*

On to `c1cc(CN2CCCNCCNCCCNCC2)ccc1CN1CCCNCCNCCCNCC1` [PLERIXAFOR], for which the CC50 in data set [1], in [3], in data set [4], in data set [5] and in data set [8] was above 50 µM in each case. In addition, the pEC50 was 7.60 in [2], 7.49 in [6], 7.41 in data set [7] and below 4.30 in data set [9].

`Cc1cn([C@H]2C[C@H](N=[N+]=[N-])[C@@H](CO)O2)c(=O)[nH]c1=O` [ZIDOVUDINE]: the CC50 is above 100 µM in data set [1]; 27 µM in data set [3]; above 100 µM in data set [4]; 31 µM in [5]; above 100 µM in data set [8]. Moreover, the pEC50 in data set [2] is 7.89; in data set [6], 6.92; in data set [7] it was 7.82; in [9], 6.29.

Take `CC[C@H](C)[C@H](NC(=O)[C@H](CCCNC(=N)N)NC(=O)[C@H](CCC(N)=O)NC(=O)[C@H](Cc1c[nH]cn1)NC(=O)[C@@H](NC(=O)[C@H](CO)NC(=O)[C@H](Cc1ccc(O)cc1)NC(=O)[C@H](CC(C)C)NC(=O)[C@@H](NC(=O)[C@H](C)NC(=O)[C@@H](NC(=O)[C@@H](NC(C)=O)[C@@H](C)O)[C@@H](C)CC)C(C)C)C(C)C)C(=O)N[C@@H](CC(=O)O)C(=O)N[C@H](C(=O)N[C@@H](CCCCN)C(=O)NCC(=O)N[C@@H](CSCC(=O)N[C@@H](CCCNC(=N)N)C(=O)N[C@@H](CCCN)C(=O)N[C@@H](CCCNC(=N)N)C(=O)N[C@@H](CCCN)C(=O)N[C@@H](CCCNC(=N)N)C(=O)N[C@@H](CCCN)C(=O)N[C@@H](CCCNC(=N)N)C(=O)N[C@@H](CCCN)C(N)=O)C(N)=O)C(C)C` (I: Ac-TIAVLYSVHQRIDVKGC-NH2 / II: R[Orn]R[Orn]R[Orn]R[Orn]-NH2; linker I:17-II:N via X1): the CC50 in data set [1] worked out at 7.2 µM; in data set [3], 6.1 µM; in [4] it was 11 µM; in [5] it was 9.1 µM; in [8] it was 10 µM. The pEC50 in data set [10] is 6.70; in data set [2], 6.21; in [6], 5.20; in data set [7] it was 5.80; in data set [9], 5.96.

With `CC[C@H](C)[C@H](NC(=O)[C@H](CCCNC(=N)N)NC(=O)[C@H](CCC(N)=O)NC(=O)[C@H](Cc1c[nH]cn1)NC(=O)[C@@H](NC(=O)[C@H](CO)NC(=O)[C@H](Cc1ccc(O)cc1)NC(=O)[C@H](CC(C)C)NC(=O)[C@@H](NC(=O)[C@H](C)NC(=O)[C@@H](NC(=O)[C@@H](NC(=O)[C@H](CC(N)=O)NC(=O)[C@H](Cc1ccc(O)cc1)NC(=O)[C@H](CC(C)C)NC(C)=O)[C@@H](C)O)[C@@H](C)CC)C(C)C)C(C)C)C(=O)NCC(=O)N[C@@H](CSCC(=O)N[C@@H](CCCNC(=N)N)C(=O)N[C@@H](CCCN)C(=O)N[C@@H](CCCNC(=N)N)C(=O)N[C@@H](CCCN)C(=O)N[C@@H](CCCNC(=N)N)C(=O)N[C@@H](CCCN)C(=O)N[C@@H](CCCNC(=N)N)C(=O)N[C@@H](CCCN)C(N)=O)C(N)=O` (I: Ac-LYNTIAVLYSVHQRIGC-NH2 / II: R[Orn]R[Orn]R[Orn]R[Orn]-NH2; linker I:17-II:N via X1), the cytotoxic concentration (CC50) in [1] worked out at 8.7 µM; in data set [4], 12 µM; in [8] it was 11 µM. The pEC50 in [2] was 6.19; in data set [6], 5.20; in data set [9] it was 5.55.

As for `CC[C@H](C)[C@H](NC(=O)[C@H](CCCNC(=N)N)NC(=O)[C@H](CCC(N)=O)NC(=O)[C@H](Cc1c[nH]cn1)NC(=O)[C@@H](NC(=O)[C@H](CO)NC(=O)[C@H](Cc1ccc(O)cc1)NC(=O)[C@H](CC(C)C)NC(=O)[C@@H](NC(=O)[C@H](C)NC(=O)[C@@H](NC(=O)[C@@H](NC(=O)[C@H](CC(N)=O)NC(=O)[C@H](Cc1ccc(O)cc1)NC(C)=O)[C@@H](C)O)[C@@H](C)CC)C(C)C)C(C)C)C(=O)N[C@@H](CC(=O)O)C(=O)NCC(=O)N[C@@H](CSCC(=O)N[C@@H](CCCNC(=N)N)C(=O)N[C@@H](CCCN)C(=O)N[C@@H](CCCNC(=N)N)C(=O)N[C@@H](CCCN)C(=O)N[C@@H](CCCNC(=N)N)C(=O)N[C@@H](CCCN)C(=O)N[C@@H](CCCNC(=N)N)C(=O)N[C@@H](CCCN)C(N)=O)C(N)=O` (I: Ac-YNTIAVLYSVHQRIDGC-NH2 / II: R[Orn]R[Orn]R[Orn]R[Orn]-NH2; linker I:17-II:N via X1), the CC50 in [1] stood at 7.6 µM; in data set [4] it was 7.7 µM; in [8] it was 7 µM. Further, the negative-log EC50 (pEC50) in [2] was 5.77; in [6], below 5.15; in [9], 5.85.

Take `CC[C@H](C)[C@H](NC(=O)[C@H](CCCNC(=N)N)NC(=O)[C@H](CCC(N)=O)NC(=O)[C@H](Cc1cnc[nH]1)NC(=O)[C@@H](NC(=O)[C@H](CO)NC(=O)[C@H](Cc1ccc(O)cc1)NC(=O)[C@H](CC(C)C)NC(=O)[C@@H](NC(=O)[C@H](C)NC(=O)[C@@H](NC(=O)[C@@H](NC(C)=O)[C@@H](C)O)[C@@H](C)CC)C(C)C)C(C)C)C(=O)N[C@@H](CC(=O)O)C(=O)N[C@H](C(=O)N[C@@H](CCCCN)C(=O)NCC(=O)N[C@@H](CSCC(N)=O)C(N)=O)C(C)C` (Ac-TIAVLYSVHQRIDVKGC(Cam)-NH2): the CC50 was above 50 µM in data set [1]; above 50 µM in data set [3]; 47 µM in data set [4]; above 50 µM in data set [5]; above 50 µM in data set [8]. For the same compound, the negative-log EC50 (pEC50) was 6.19 in [10]; 4.66 in data set [2]; below 4.30 in data set [6]; below 4.30 in [7]; below 4.30 in data set [9].

As for `CC[C@H](C)[C@H](NC(=O)[C@@H](NC(=O)[C@H](CC(N)=O)NC(=O)[C@H](Cc1ccc(O)cc1)NC(=O)[C@H](CC(C)C)NC(=O)[C@H](CO)NC(=O)[C@H](CCCNC(=N)N)NC(=O)[C@H](CC(C)C)NC(=O)[C@H](CCC(=O)O)NC(=O)[C@H](CCC(=O)O)NC(=O)[C@H](CO)NC(C)=O)[C@@H](C)O)C(=O)N[C@@H](C)C(=O)N[C@H](C(=O)N[C@@H](CC(C)C)C(=O)N[C@@H](Cc1ccc(O)cc1)C(=O)NCC(=O)N[C@@H](CSCC(=O)N[C@@H](CCCNC(=N)N)C(=O)N[C@@H](CCCNC(=N)N)C(=O)N[C@@H](CCCNC(=N)N)C(=O)N[C@@H](CCCNC(=N)N)C(=O)N[C@@H](CCCNC(=N)N)C(=O)N[C@@H](CCCNC(=N)N)C(=O)N[C@@H](CCCNC(=N)N)C(=O)N[C@@H](CCCNC(=N)N)C(N)=O)C(N)=O)C(C)C`, the cytotoxic concentration (CC50) in data set [1] was determined as 13 µM; in [4] it was 8.7 µM; in data set [8], 10 µM. Besides, the pEC50 in [2] was below 5.06; in data set [6], below 5.00; in [9], below 4.89.

As to `COC[C@@H](c1ccc(C(F)(F)F)cc1)N1CCN(C2(C)CCN(C(=O)c3c(C)ncnc3C)CC2)C[C@@H]1C` [VICRIVIROC], the CC50 in data set [1], in data set [4] and in data set [8] was above 5 µM throughout. For the same compound, the pEC50 was below 5.30 in data set [2], below 5.30 in data set [6] and 8.31 in data set [9].

Turning to `CC[C@H](C)[C@H](NC(=O)[C@@H](NC(=O)[C@H](CC(N)=O)NC(=O)[C@H](Cc1ccc(O)cc1)NC(=O)[C@H](CC(C)C)NC(=O)[C@H](CO)NC(=O)[C@H](CCCNC(=N)N)NC(=O)[C@H](CC(C)C)NC(=O)[C@H](CCC(=O)O)NC(=O)[C@H](CCC(=O)O)NC(C)=O)[C@@H](C)O)C(=O)N[C@@H](C)C(=O)N[C@H](C(=O)N[C@@H](CC(C)C)C(=O)N[C@@H](Cc1ccc(O)cc1)C(=O)N[C@@H](CO)C(=O)NCC(=O)N[C@@H](CSCC(=O)N[C@@H](CCCNC(=N)N)C(=O)N[C@@H](CCCN)C(=O)N[C@@H](CCCNC(=N)N)C(=O)N[C@@H](CCCN)C(=O)N[C@@H](CCCNC(=N)N)C(=O)N[C@@H](CCCN)C(=O)N[C@@H](CCCNC(=N)N)C(=O)N[C@@H](CCCN)C(N)=O)C(N)=O)C(C)C`, the values for the half-maximal cytotoxic concentration (CC50) in data set [1], in data set [4] and in [8] were 9.3 µM, 10 µM and 9.3 µM, respectively. Also, the pEC50 in data set [2] was below 5.00; in data set [6] it was below 5.03; in [9], below 5.03.

(Values after ChEMBL document CHEMBL3600292, “Anti-HIV screening for cell-penetrating peptides using chloroquine and identification of anti-HIV peptides derived from matrix proteins” (Bioorg Med Chem, 2015).)
